Targets include Carbonic anhydrase 3 (Homo sapiens, UniProt P07451); Carbonic anhydrase 12 (Homo sapiens, UniProt O43570); Carbonic anhydrase 4 (Homo sapiens, UniProt P22748); Carbonic anhydrase 14 (Homo sapiens, UniProt Q9ULX7); Carbonic anhydrase 13 (Mus musculus, UniProt Q9D6N1); Carbonic anhydrase 7 (Homo sapiens, UniProt P43166); Carbonic anhydrase 9 (Homo sapiens, UniProt Q16790); Carbonic anhydrase 6 (Homo sapiens, UniProt P23280).

Experiment [1] deals with Carbonic anhydrase 5B, mitochondrial (Homo sapiens, UniProt Q9Y2D0).
Carbonic anhydrase 5B, mitochondrial, sequence (Q9Y2D0 whole entry): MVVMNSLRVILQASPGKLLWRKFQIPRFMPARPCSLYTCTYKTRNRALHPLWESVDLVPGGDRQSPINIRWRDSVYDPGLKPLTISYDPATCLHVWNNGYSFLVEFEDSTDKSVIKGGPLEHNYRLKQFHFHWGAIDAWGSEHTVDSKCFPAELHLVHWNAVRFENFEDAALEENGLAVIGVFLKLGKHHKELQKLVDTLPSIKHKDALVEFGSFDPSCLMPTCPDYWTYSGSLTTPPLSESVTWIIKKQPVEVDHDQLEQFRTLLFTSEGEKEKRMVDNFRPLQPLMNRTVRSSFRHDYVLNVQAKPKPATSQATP
Description: Inhibition of human carbonic anhydrase 5B by stopped-flow CO2 hydration assay
In experiment [2] the target is Carbonic anhydrase 5A, mitochondrial (Homo sapiens, UniProt P35218).
Carbonic anhydrase 5A, mitochondrial, sequence (P35218 whole entry): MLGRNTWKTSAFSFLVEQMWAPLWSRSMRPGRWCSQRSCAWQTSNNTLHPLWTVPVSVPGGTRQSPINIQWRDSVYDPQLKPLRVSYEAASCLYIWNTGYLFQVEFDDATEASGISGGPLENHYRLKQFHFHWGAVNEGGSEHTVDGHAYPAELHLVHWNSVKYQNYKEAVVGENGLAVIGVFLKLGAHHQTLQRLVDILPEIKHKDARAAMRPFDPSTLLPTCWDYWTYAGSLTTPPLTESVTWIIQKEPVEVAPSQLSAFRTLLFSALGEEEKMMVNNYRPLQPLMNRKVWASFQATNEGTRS
Description: Inhibition of human carbonic anhydrase 5A by stopped-flow CO2 hydration assay

Carbonic anhydrase 3, sequence (P07451 whole entry): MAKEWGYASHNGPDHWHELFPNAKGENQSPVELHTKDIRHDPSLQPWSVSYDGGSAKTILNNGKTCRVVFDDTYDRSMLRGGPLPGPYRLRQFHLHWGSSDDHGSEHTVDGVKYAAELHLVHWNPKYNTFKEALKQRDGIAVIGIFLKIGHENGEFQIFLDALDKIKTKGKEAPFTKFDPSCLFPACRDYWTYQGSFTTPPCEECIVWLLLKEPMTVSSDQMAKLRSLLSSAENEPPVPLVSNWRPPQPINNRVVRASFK
Carbonic anhydrase 7, sequence (P43166 whole entry): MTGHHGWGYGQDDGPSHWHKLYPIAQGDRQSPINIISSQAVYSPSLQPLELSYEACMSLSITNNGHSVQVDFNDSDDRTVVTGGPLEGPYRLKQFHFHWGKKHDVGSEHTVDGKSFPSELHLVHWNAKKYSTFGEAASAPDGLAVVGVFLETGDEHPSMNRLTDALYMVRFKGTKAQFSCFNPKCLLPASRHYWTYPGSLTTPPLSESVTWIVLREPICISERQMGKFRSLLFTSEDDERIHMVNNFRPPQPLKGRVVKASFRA
Carbonic anhydrase 12, sequence (O43570 whole entry): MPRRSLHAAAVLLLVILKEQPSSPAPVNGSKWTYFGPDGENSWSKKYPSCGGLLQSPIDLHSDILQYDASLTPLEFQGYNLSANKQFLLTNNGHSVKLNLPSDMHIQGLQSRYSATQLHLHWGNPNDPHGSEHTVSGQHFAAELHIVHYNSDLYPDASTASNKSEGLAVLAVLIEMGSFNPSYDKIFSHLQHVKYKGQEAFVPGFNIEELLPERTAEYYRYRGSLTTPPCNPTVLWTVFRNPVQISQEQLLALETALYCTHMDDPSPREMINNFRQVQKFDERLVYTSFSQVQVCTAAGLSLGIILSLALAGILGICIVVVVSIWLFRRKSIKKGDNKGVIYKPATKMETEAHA
Carbonic anhydrase 13, sequence (Q9D6N1 whole entry): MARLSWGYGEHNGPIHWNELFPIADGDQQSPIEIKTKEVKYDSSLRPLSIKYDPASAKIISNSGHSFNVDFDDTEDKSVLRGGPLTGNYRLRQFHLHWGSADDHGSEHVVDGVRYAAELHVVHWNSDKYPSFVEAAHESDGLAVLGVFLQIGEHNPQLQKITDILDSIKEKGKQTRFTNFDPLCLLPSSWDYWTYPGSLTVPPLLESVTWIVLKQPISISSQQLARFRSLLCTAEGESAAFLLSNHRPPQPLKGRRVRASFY
Carbonic anhydrase 14, sequence (Q9ULX7 whole entry): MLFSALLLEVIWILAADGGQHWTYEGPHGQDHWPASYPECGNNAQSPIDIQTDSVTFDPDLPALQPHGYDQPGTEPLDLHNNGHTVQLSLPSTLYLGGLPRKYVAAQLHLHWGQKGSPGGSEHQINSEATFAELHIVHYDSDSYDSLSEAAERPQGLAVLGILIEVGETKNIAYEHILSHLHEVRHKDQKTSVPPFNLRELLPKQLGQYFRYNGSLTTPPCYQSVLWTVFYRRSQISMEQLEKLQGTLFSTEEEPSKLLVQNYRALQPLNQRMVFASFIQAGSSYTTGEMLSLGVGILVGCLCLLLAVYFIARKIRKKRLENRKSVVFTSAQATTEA
Carbonic anhydrase 6, sequence (P23280 whole entry): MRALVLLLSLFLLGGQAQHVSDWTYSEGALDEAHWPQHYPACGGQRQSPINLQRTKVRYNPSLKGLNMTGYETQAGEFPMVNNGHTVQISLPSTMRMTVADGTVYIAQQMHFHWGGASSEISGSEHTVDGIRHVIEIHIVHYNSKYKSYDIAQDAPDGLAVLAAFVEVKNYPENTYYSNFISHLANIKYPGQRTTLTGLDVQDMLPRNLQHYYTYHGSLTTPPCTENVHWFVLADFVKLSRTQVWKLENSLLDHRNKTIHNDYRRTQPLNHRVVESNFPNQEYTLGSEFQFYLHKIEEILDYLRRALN
Carbonic anhydrase 4, sequence (P22748 whole entry): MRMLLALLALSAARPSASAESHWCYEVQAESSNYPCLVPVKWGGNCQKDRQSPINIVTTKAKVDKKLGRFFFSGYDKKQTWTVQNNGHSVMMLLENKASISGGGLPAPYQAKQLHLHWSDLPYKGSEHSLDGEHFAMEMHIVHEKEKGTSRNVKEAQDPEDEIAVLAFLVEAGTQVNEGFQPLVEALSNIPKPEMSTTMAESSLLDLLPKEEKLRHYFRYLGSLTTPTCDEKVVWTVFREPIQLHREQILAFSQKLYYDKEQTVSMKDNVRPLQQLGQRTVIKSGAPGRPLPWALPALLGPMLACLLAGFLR
Description for Carbonic anhydrase 12: Inhibition of human carbonic anhydrase 12 catalytic domain by stopped-flow CO2 hydration assay
Description for Carbonic anhydrase 13: Inhibition of mouse carbonic anhydrase 13 by stopped-flow CO2 hydration assay
Description for Carbonic anhydrase 14: Inhibition of human carbonic anhydrase 14 by stopped-flow CO2 hydration assay
Description for Carbonic anhydrase 3: Inhibition of human carbonic anhydrase 3 by stopped-flow CO2 hydration assay
Description for Carbonic anhydrase 4: Inhibition of human carbonic anhydrase 4 by stopped-flow CO2 hydration assay
Description for Carbonic anhydrase 6: Inhibition of human carbonic anhydrase 6 by stopped-flow CO2 hydration assay
Description for Carbonic anhydrase 7: Inhibition of human carbonic anhydrase 7 by stopped-flow CO2 hydration assay
Description for Carbonic anhydrase 9: Inhibition of human carbonic anhydrase 9 catalytic domain by stopped-flow CO2 hydration assay

For `Oc1cc(F)ccc1F`, the Ki in experiment [1] came out at 51.2 µM; on Carbonic anhydrase 3, 10.8 µM; on Carbonic anhydrase 12, 598 µM; at Carbonic anhydrase 4 it was 426 µM; at Carbonic anhydrase 14, 34 µM; on Carbonic anhydrase 13, 69.5 µM. The Ki on Carbonic anhydrase 7 was determined as 554 µM; on Carbonic anhydrase 9, 68.7 µM; on Carbonic anhydrase 6, 90.6 µM; in experiment [2] it was 12 µM.

On to `N#Cc1ccc(O)cc1` [4-CYANOPHENOL], for which the inhibition constant (Ki) was found to be 557 µM in experiment [1]; 634 µM on Carbonic anhydrase 4; 45 µM at Carbonic anhydrase 13; 777 µM at Carbonic anhydrase 7; 56 µM on Carbonic anhydrase 9; 520 µM in [2].

Consider `CC(=O)Nc1ccc(O)cc1` [ACETAMINOPHEN], for which the Ki was determined as 296 µM in experiment [1]; 7.1 µM at Carbonic anhydrase 3; 4.1 µM at Carbonic anhydrase 12; 11.4 µM at Carbonic anhydrase 4; 10.6 µM on Carbonic anhydrase 14; 30.3 µM on Carbonic anhydrase 13. Besides, the Ki was found to be 70.7 µM on Carbonic anhydrase 9, 658 µM on Carbonic anhydrase 6 and 802 µM in experiment [2].

With `Oc1ccccc1O` [CATECHOL], the Ki in experiment [1] came out at 4.2 µM; on Carbonic anhydrase 3, 13 µM; at Carbonic anhydrase 12, 8.9 µM; on Carbonic anhydrase 14, 48.9 µM; at Carbonic anhydrase 13, 12.2 µM; at Carbonic anhydrase 7, 714 µM. Also, the Ki at Carbonic anhydrase 9 was 115 µM; on Carbonic anhydrase 6 it was 606 µM; in [2], 55.1 µM.

`Oc1ccc(O)cc1` [HYDROQUINONE]: the Ki in experiment [1] is 12.5 µM; at Carbonic anhydrase 3, 8.2 µM; at Carbonic anhydrase 12, 7.8 µM; at Carbonic anhydrase 14, 42 µM; on Carbonic anhydrase 13 it was 74.3 µM; on Carbonic anhydrase 7 it was 883 µM. Also, the Ki at Carbonic anhydrase 9 amounted to 32.5 µM; at Carbonic anhydrase 6 it was 521 µM; in [2] it was 14.1 µM.

Regarding `O=C(O)c1ccc(O)cc1` [PARABEN], the Ki was determined as 696 µM at Carbonic anhydrase 3; 4.8 µM at Carbonic anhydrase 12; 809 µM at Carbonic anhydrase 4; 34.3 µM at Carbonic anhydrase 14; 86 µM at Carbonic anhydrase 13; 716 µM on Carbonic anhydrase 7. The Ki at Carbonic anhydrase 9 is 118 µM; on Carbonic anhydrase 6, 11.4 µM; in [2] it was 9.2 µM.

`Oc1cccc(O)c1` [RESORCINOL]: the Ki in experiment [1] is 7.1 µM; at Carbonic anhydrase 3, 605 µM; on Carbonic anhydrase 12, 7.5 µM; on Carbonic anhydrase 4, 570 µM; at Carbonic anhydrase 14, 10.7 µM; on Carbonic anhydrase 13, 62.6 µM. The Ki at Carbonic anhydrase 7 was determined as 644 µM; on Carbonic anhydrase 9, 69.7 µM; at Carbonic anhydrase 6 it was 550 µM; in [2], 8.7 µM.

One may read the Ki as a dissociation constant, usually derived from enzyme kinetics or from competition with a known ligand. Lower therefore signals a stronger hold on the target.

The record behind these values is ChEMBL document CHEMBL1155782 (Bioorg Med Chem, 2008).
